{"source": "patent US20220267390A1", "about": "“MPS MODIFIED PEPTIDES AND USE THEREOF” (The Regents of the University of California, priority 2019, published 2022)", "type_in_all_cases": "cell-based, human", "key": {"IPF fibroblast cells": {"test_system": "IPF fibroblast cells", "assay": "cells", "conditions": "72 h", "experimental": "FIG. 14: Comparison of MPS-12042 (SEQ ID NO: 45) versus know tyrosine kinase inhibitor (TKLs) on the treatment of IPF fibroblast cells. Both normal and IPF lung fibroblast cells were treated with various drugs. After 72 hours, cells were subjected to MTT assays and IC50 for each drug was determined.\nHuman primary fibroblast cells were obtained from airway tissues provided from the UC Davis Medical Hospital (Sacramento, Calif.) with consent. The protocol for human tissue procurement and usage were periodically reviewed and approved by the University Human Subject Research Review Committee. Primary fibroblast cell lines, IPF-1 and IPF-2 cells, were established from IPF patients. Cells were obtained from lung biopsies and the diagnosis of IPF was supported by patient history, physical examination, pulmonary function tests, and typical high-resolution chest computed tomography findings of IPF. […] All patients fulfilled the criteria for the diagnosis of IPF as established by the American Thoracic Society and European Respiratory Society. Non-fibrotic primary control adult human lung fibroblast lines, Normal-1 and Normal-2 cells were used. These lines were established from normal lung tissue or histologically normal lung tissue adjacent to carcinoid tumor. The IPF cell line, LL97A, was purchased from the American Type Culture Collection (ATCC) (Manassas, Va.). Lung fibroblast lines were cultured in high-glucose DMEM or RPMI-1640 medium with 10% fetal bovine serum and 1% penicillin-streptomycin at 37° C. in a humidified atmosphere of 5% CO2. Fibroblasts were used between passages 4 and 8. Cells were characterized as fibroblasts as described^26.\nCells were seeded onto 96-well plates at a density of 5-10×10^3 cells per well and cultured for the indicated treatment. Cell proliferation was evaluated using a MTS assay kit (Promega, Madison, Wis.). Twenty microliters of the combined MTS/PMS solution was added into each well, incubated for 3 hours at 37° C., and the absorbance was measured at 490 nm by using an ELISA reader. For Trypan blue test, cells were plated on 12-well plates and treated with the indicated chemotherapeutic agents. After 72 hours, both attached and detached cells were collected and then stained with 0.2% trypan blue (0.1% final concentration), and the number of trypan blue-positive and -negative cells was counted using a haemocytometer under low-power microscopy. For colony-forming assays, 200 cells were seeded in each well of six-well plates. IPF-1 or IPF-2 primary cells were treated with peptides at the indicated concentrations for 10 days. Colonies were stained using 0.001% crystal violet and the number of colonies with a diameter greater than 0.5 mm was counted under an inverted microscope."}, "primary IPF fibroblasts": {"test_system": "primary IPF fibroblasts", "assay": "Combination of nintedanib and MPS peptide, cell viability by MTT, Chou and Talalay CI", "conditions": "nintedanib 62.5-2000 nM and/or MPS 6.25-200 μM, 72 hours", "experimental": "FIGS. 12A-12E: (FIGS. 12A-12B) Combinatorial effect of MPS peptide with nintedanib on fibroblasts isolated from two IPF patients. Cells were treated with various closes of nintedanib (62.5-2000 nM) and/or MPS peptide (6.25-200 μM) for 72 hours, respectively. After single ([…]) or combined ([…]) treatment, cell viability was determined by MTT assays. (FIG. 12C) The Chou and Talalay CI (combination index) method was utilized to evaluate the therapeutic interactions between nintedanib and MPS peptide using the Calcusyn software. Gray line, additive effect of the combination of MPS peptide and the drug is represented at CI=1. (FIG. 12D) Cells were individually treated with 1 μM nintedanib, 100 μM MPS peptide or combinations of 1 μM nintedanib and 100 μM MPS peptide. After 48 hours, cell viability was determined by the trypan blue exclusion assay (n+3; *, p<0.05). […] Molecular basis of MPS peptide and its potential for increasing nintedanib efficacy. […] A kinetic assay confirmed that this peptide binds PIP2 with a dissociation constant of 17.64 nM (FIG. 10B). As expected, a decrease of PIP3 pools in whole cell lysates of MPS-treated IPF fibroblasts was observed (FIG. 10C), supporting the notion that MPS peptide is able to inhibit AKT activation through trapping PIP2. […]"}, "[1]": {"test_system": "primary IPF fibroblast cells", "assay": "Cell motility and colony-forming ability of primary IPF fibroblasts", "experimental": "FIGS. 4A-4B: MARCKS inhibition using MPS peptide reduced primary IPF fibroblast cell motility (FIG. 4A) and colony-forming ability (FIG. 4B) n=4; *, p<0.05.\nAn in vitro cell migration assay was performed as previously described^13, 14 using Transwell chambers (8-μm pore size; Costar, Cambridge, Mass.). Briefly, 2×10^4 cells were seeded on top of the polycarbonate filters, and 0.5 ml of growth medium with scrambled or MPS peptide (100 μM) was added to both the upper and lower wells. After incubation for 20 hours, filters were swabbed with a cotton swab, fixed with methanol, and then stained with Giemsa solution (Sigma). The cells attached to the lower surface of the filter were counted under a light microscope (10× magnification).\nCells were seeded onto 96-well plates at a density of 5-10×10^3 cells per well and cultured for the indicated treatment. Cell proliferation was evaluated using a MTS assay kit (Promega, Madison, Wis.). Twenty microliters of the combined MTS/PMS solution was added into each well, incubated for 3 hours at 37° C., and the absorbance was measured at 490 nm by using an ELISA reader. […] After 72 hours, both attached and detached cells were collected and then stained with 0.2% trypan blue (0.1% final concentration), and the number of trypan blue-positive and -negative cells was counted using a haemocytometer under low-power microscopy. […]"}}, "note": "Where no end group is shown, it is not given here."}
{"sequence": "KKKKKRFSFKKSFKLSGFSFKKNKK [MPS peptide]", "values": [{"measurement": "IC50", "setting": "IPF fibroblast cells", "result": "125 to 178", "unit": "µM"}, {"measurement": "Cell viability", "setting": "primary IPF fibroblasts", "result": "decreased"}, {"measurement": "cell motility", "setting": "[1]", "result": "reduces"}, {"measurement": "proliferation (colony-forming ability)", "setting": "[1]", "result": "reduces"}]}
